Patent US20200032271A1, “COMBINATION THERAPY WITH LIPOSOMAL ANTISENSE OLIGONUCLEOTIDES” (Bio-Path Holdings, Inc., priority 2016, published 2020)
Read-outs that look alike come from different tables or passages of the source. [PEt] = P-ethoxy (ethyl phosphotriester) internucleoside linkage

Experiments:
[1] = Plasma pharmacokinetics of Grb2 antisense oligo in patients; conditions: plasma
Procedure: Pharmacokinetic (PK) analysis was performed on plasma samples collected from refractory/relapsed patients diagnosed with AML receiving BP1001 (60 mg/m^2)+LDAC or receiving BP1001 (90 mg/m^2)+LDAC.
Blood samples for measurement of Grb2 antisense oligo concentrations were collected from patients in cohorts 7 and 8, at predose, 1, 2, 4, 6, 8, 24, 72 h post start-of-infusion (SOI). Urine samples for measurement of BP1001 concentrations were also collected from patients in cohorts 7 and 8, at start of dose-4 h, 4-8 h postdose, and 8-24 h postdose. PK blood samples were processed to plasma and analyzed using a validated method (Charles River Laboratories, Montreal, Canada) with a lower limit of quantitation (LLOQ; 0.5 ng/mL). Urine samples were analyzed using a validated method (Charles River Laboratories, Montreal, Canada) with a LLOQ of 1.00 ng/mL.
PK parameters were estimated using Phoenix pharmacokinetic software (Certara). A non-compartmental approach consistent with the IV infusion route of administration was used for parameter estimation, using an estimated infusion time of 2.5 h. All parameters were generated from Grb2 antisense oligo individual concentrations in plasma from Day 1 of Cycle 1, whenever practical. […] Parameters were estimated using nominal sampling times relative to the start of infusion. The area under the concentration vs. time curve (AUC) was calculated using the linear trapezoidal method with linear interpolation. The slope of the terminal elimination phase was determined using log linear regression on the unweighted concentration data.

BV173 cells [2] = assay: Cell cycle analysis (7-AAD flow cytometry); assay type: cell-based, human
Procedure: Cells were then fixed and permeabilized for 1 h at 4° C. with 1×Fixation/Permeabilization buffer (Ebioscience, San Diego, Calif., USA). After permeabilization, cells were washed and incubated with 7-aminoactinomycin D (7-AAD, Biolegend, San Diego, Calif., USA) in the dark at 4° C. for about 30 min. Flow cytometric data acquisition was acquired using BD FACSDiva™ software (BD Biosciences, San Jose, Calif., USA). The flow cytometer was set to collect 20,000 events. Relative percentages in the different cell cycle phases (sub-G1, G1, S, G2/M) were reported.
[…] Three days later, cells were harvested and processed for flow cytometry.

BV173 cells [3] = test system: BV173 cells
Procedure: (§1) BV173 and K562 cells were seeded at 5 and 15×10^3 cells/well, respectively, in 96-well plates in 0.1 mL of medium. Cells were incubated with BP1001 and/or tyrosine kinase inhibitors for 4 days. The viability of untreated and treated leukemia cells was measured by the CellTiter-Glo® Luminescent Cell Viability Assay (Promega, Madison, Wis., USA). The CellTiter-Glo® Luminescent Cell Viability Assay determines the number of viable cells by quantitating the presence of ATP, an indicator of metabolically active cells.

[4] = tyrosine kinase inhibitor alone or after BP1001 pretreatment (FIG. 9A)
[5] = tyrosine kinase inhibitor alone or followed by BP1001 (FIG. 9B)
[6] = BP1001 (120 μg/mL in the combination) 1 h before 1 nM dasatinib, four days
[7] = BP1001 (120 μg/mL in the combination) 1 day before dasatinib
[8] = dasatinib 1 day, then BP1001 (120 μg/mL in the combination), read 3 days later

Procedure for K562 cells: as §1

Q: For “5′-ATATTTGGCGATGGCTTC-3′ (DNA, all [PEt], methylation of C not given here) [Grb2 antisense oligo]”, which Tmax ([1]; 60 mg/m^2 cohort) is on record?
A: 1 h

Q: And the Tmax ([1]; 90 mg/m^2 cohort)?
A: 1 h

Q: What about the “decrease of Vz for the dose increase from 60 to 90 mg/m^2” value [1] of the same compound?
A: approximately 1.5 fold

Q: And the “increase of CL for the dose increase from 60 to 90 mg/m^2” value [1]?
A: approximately 1.5 fold

Q: Which “percentage of cells in sub-G1 phase” value (BV173 cells [2]; [4]) does the source give for `COc1cc(Nc2c(C#N)cnc3cc(OCCCN4CCN(C)CC4)c(OC)cc23)c(Cl)cc1Cl` [bosutinib] here?
A: 34.3%

Q: And the “percentage of cells in sub-G1 phase” value (BV173 cells [2]; [5])?
A: 66.1%

Q: Which decrease of viability (BV173 cells [3]; [6]) does the source give for `Cc1nc(Nc2ncc(C(=O)Nc3c(C)cccc3Cl)s2)cc(N2CCN(CCO)CC2)n1` [dasatinib] here?
A: 40%

Q: What about the decrease of viability (BV173 cells [3]; [7]) of the same compound?
A: 10%

Q: What about the decrease of viability (BV173 cells [3]; [8]) of the same compound?
A: 6%

Q: And the decrease of viability (K562 cells; [6])?
A: 25%

Q: What about the decrease of viability (K562 cells; [7]) of the same compound?
A: 25%

Q: And the decrease of viability (K562 cells; [8])?
A: 12%

Q: What about the “percentage of cells in sub-G1 phase” value (BV173 cells [2]; BP1001 1 day before dasatinib, harvested three days later (FIGS. 8A-D)) of the same compound?
A: 10.6%

Q: What about the “percentage of cells in sub-G1 phase” value (BV173 cells [2]; [4]) of the same compound?
A: 30.7%

Q: What about the “percentage of cells in sub-G1 phase” value (BV173 cells [2]; [5]) of the same compound?
A: 64.1%

Q: For `Cc1cn(-c2cc(NC(=O)c3ccc(C)c(Nc4nccc(-c5cccnc5)n4)c3)cc(C(F)(F)F)c2)cn1` [nilotinib], which “percentage of cells in sub-G1 phase” value (BV173 cells [2]; [4]) is on record?
A: 26.4%

Q: What about the “percentage of cells in sub-G1 phase” value (BV173 cells [2]; [5]) of the same compound?
A: 65.0%

Q: Which “percentage of cells in sub-G1 phase” value (BV173 cells [2]; [4]) does the source give for `Cc1ccc(C(=O)Nc2ccc(CN3CCN(C)CC3)c(C(F)(F)F)c2)cc1C#Cc1cnc2cccnn12` [ponatinib] here?
A: 34.0%

Q: And the “percentage of cells in sub-G1 phase” value (BV173 cells [2]; [5])?
A: 71.1%
